Here are results for seven compounds from publication PMC6969166, “The molecular basis of pyrazinamide activity on Mycobacterium tuberculosis PanD” (Nature Communications, 2020).

Where “and” joins values, the source holds several entries; their conditions need not be identical. Equal values may be shown once. Entries after “also recorded” stand apart in the source; their conditions may differ. Read-outs that look alike come from different tables or passages of the source.

One assay relates to PanD. Further details: method as in PMID 23029336. The conditions noted are these: cited from earlier work.
Assay [1] concerns the target T1, Mtb PanD (Mycobacterium tuberculosis, UniProt P9WIL3).
T1 construct: The active protein consists of a β chain (Met1-Gly24) and an α chain (Pyr25 to ILE115); we observed the processed active enzyme after cleavage between Gly24 and Ser25; inferred from the pET21c(+) vector and HisTrap purification); made in house; host or cells: Escherichia coli BL21(DE3)
The assay is described as follows: biochemical. The conditions noted are these: for remaining activity at 312.5 µM / remaining activity at 625 µM / remaining activity at 1250 µM / remaining activity at 2500 µM / remaining activity at 5000 µM / remaining activity at 10000 µM / remaining activity at 20000 µM: read-out: Fractional Activity. It is filed as biochemical.

Assay [2] has as its target T1, Mtb PanD. The assay is described as follows: Isothermal titration calorimetry, wild type. It is filed as binding. The conditions noted are these: for ΔH / ΔS: mean. On the procedure: ITC experiments were performed using a MicroCal iTC200 (GE). Both protein and ligands were in a buffer of 100 mM Tris, pH 7.5. The protein concentration in the cell was 0.5 mM, and the ligand concentration was 20 mM. The titration was performed at 20 °C. The data were analyzed with the Origin 7.0 software and fitted with a single-site binding model.

In a further assay the test system is Mtb cultures. The conditions noted are these: cited from earlier work.

T1 sequence (P9WIL3 1-24): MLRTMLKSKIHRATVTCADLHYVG
T1 sequence (P9WIL3 25-139): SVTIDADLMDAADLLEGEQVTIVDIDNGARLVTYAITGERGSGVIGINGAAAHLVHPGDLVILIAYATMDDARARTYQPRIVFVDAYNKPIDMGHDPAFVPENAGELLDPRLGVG

With `O=C(O)C(O)C(O)C(=O)O` (stereo not shown) [tartrate], the “inhibitor of the enzyme” value with PanD is on record as “known inhibitor”.
`O=C(O)c1cccnc1` [NA, nicotinic acid]: on Mtb PanD [1], the “inhibition of Mtb PanD” value is recorded as “lack of inhibitory activity; also recorded: None of these compounds inhibited”, the remaining activity at 312.5 µM was determined as 101%, the remaining activity at 625 µM was 98.1% and the remaining activity at 1250 µM came out at 96.6%. At Mtb PanD [1], the remaining activity at 2500 µM amounted to 90.2%, the remaining activity at 5000 µM was found to be 87.2%, the remaining activity at 10000 µM was found to be 82.2% and the remaining activity at 20000 µM stood at 61.4%. For the same compound, the “binding in ITC” value at Mtb PanD [2] (100 mM Tris pH 7.5) was “no binding”.
`NC(=O)c1cnccn1` [PZA, pyrazinamide]: at Mtb PanD [1], the “inhibition of Mtb PanD” value is listed as “lack of inhibitory activity; also recorded: None of these compounds inhibited”. Besides, at Mtb PanD [1] (compound conc 0.3125 mM), the remaining activity at 312.5 µM stood at 104%. In addition, the remaining activity at 625 µM on Mtb PanD [1] (compound conc 0.625 mM) came out at 105%. For the same compound, at Mtb PanD [1] (compound conc 1.25 mM), the remaining activity at 1250 µM came to 101%. In addition, the remaining activity at 2500 µM at Mtb PanD [1] (compound conc 2.5 mM) was determined as 104%. The remaining activity at 5000 µM at Mtb PanD [1] (compound conc 5 mM) came to 101%. Also, on Mtb PanD [1] (compound conc 10 mM), the remaining activity at 10000 µM was 98.7%. For the same compound, the remaining activity at 20000 µM at Mtb PanD [1] (compound conc 20 mM) was 91.5%. In the assay with Mtb cultures (mildly acidic (<pH6), ref 2 (peer review file list)), the minimal inhibitory concentration is 0.4-1.6 mM and 50 – 200 µg/ml. The minimum inhibitory concentrations in the assay with Mtb cultures (mildly acidic pH) was 400 to 1600 µM. The “activity against Mtb cultures” value with Mtb cultures (normal media) is recorded as “not active”.
Consider `O=C(O)c1cnc(Cl)cn1` [5-Cl-POA], for which the “inhibition of Mtb PanD” value against Mtb PanD [1] is “no inhibition”. For the same compound, the remaining activity at 312.5 µM on Mtb PanD [1] (compound conc 0.3125 mM) turned out to be 92.8%. Also, at Mtb PanD [1] (compound conc 0.625 mM), the remaining activity at 625 µM turned out to be 89.8%. Also, the remaining activity at 1250 µM at Mtb PanD [1] (compound conc 1.25 mM) was 80.2%. Further, the remaining activity at 2500 µM at Mtb PanD [1] (compound conc 2.5 mM) was found to be 67.7%. In addition, the remaining activity at 5000 µM at Mtb PanD [1] (compound conc 5 mM) came to 52.9%. For the same compound, at Mtb PanD [1] (compound conc 10 mM), the remaining activity at 10000 µM stood at 51.6%. The remaining activity at 20000 µM on Mtb PanD [1] (compound conc 20 mM) came to 44.3%.
Take `O=C(O)c1cnccn1` [POA, pyrazinoic acid]: the mode of inhibition result at Mtb PanD [1] is recorded as “competitive with aspartate”. In addition, the remaining activity at 312.5 µM at Mtb PanD [1] (compound conc 0.3125 mM) came to 81.2%. Further, the remaining activity at 625 µM on Mtb PanD [1] (compound conc 0.625 mM) was determined as 66.4%. Also, the remaining activity at 1250 µM at Mtb PanD [1] (compound conc 1.25 mM) came to 52.9%. The remaining activity at 2500 µM at Mtb PanD [1] (compound conc 2.5 mM) stood at 34.8%. Besides, the remaining activity at 5000 µM on Mtb PanD [1] (compound conc 5 mM) is 21.6%. Moreover, the remaining activity at 10000 µM at Mtb PanD [1] (compound conc 10 mM) was 13.4%. In addition, the remaining activity at 20000 µM at Mtb PanD [1] (compound conc 20 mM) was 7.44%. Also, at Mtb PanD [2] (ITC, 20 °C, 100 mM Tris pH 7.5), the ΔH was -4200 (200) cal mol^−1 and the ΔS is on record as 0.1 (0.7) cal mol^−1 deg^−1.
As a reminder, the Ki is a dissociation constant, usually derived from enzyme kinetics or from competition with a known ligand. High values mean lower affinity, low ones higher affinity. One may read the Kd as the equilibrium constant for the complex coming apart. Low readings indicate higher affinity, high ones lower affinity. As for `O=C(O)c1cncc(Cl)n1` [6-Cl-POA, 6-chloropyrazinoic acid], at Mtb PanD [1], affinity was put at a Ki of 1000 µM, the “inhibition of Mtb PanD” value was “inhibitor of PanD” and the mode of inhibition entry was “competitive”. Further, the remaining activity at 312.5 µM at Mtb PanD [1] (compound conc 0.3125 mM) came to 81.8%. The remaining activity at 625 µM on Mtb PanD [1] (compound conc 0.625 mM) was found to be 69.3%. Also, at Mtb PanD [1] (compound conc 1.25 mM), the remaining activity at 1250 µM is 51.7%. Also, on Mtb PanD [1] (compound conc 2.5 mM), the remaining activity at 2500 µM was 35%. In addition, at Mtb PanD [1] (compound conc 5 mM), the remaining activity at 5000 µM turned out to be 22.9%. Moreover, the remaining activity at 10000 µM at Mtb PanD [1] (compound conc 10 mM) was determined as 19.8%. Also, the remaining activity at 20000 µM on Mtb PanD [1] (compound conc 20 mM) was 8.91%. Moreover, on Mtb PanD [2] (ITC, 20 °C, 100 mM Tris pH 7.5, single-site model, mean of separate experiments), the Kd amounted to 1090 µM. Further, at Mtb PanD [2] (ITC, 20 °C, 100 mM Tris pH 7.5), the ΔH is reported as −3300 (100) cal mol^−1 and the ΔS is listed as 2.2 (0.5) cal mol^−1 deg^−1. On Mtb PanD [2] (ITC, wt, single experiments), the Kd is 1090 µM and 1140 µM and 1050 µM; the “ΔS (cal/mol /deg)” value is 2.27 cal/mol /deg and 1.7 cal/mol /deg and 2.71 cal/mol /deg.
By Km is commonly meant the substrate concentration at which the rate is half of its maximum. In the case of `N[C@@H](CC(=O)O)C(=O)O` [aspartate, L-aspartate], the Michaelis-Menten constant (Km) on Mtb PanD [1] is 1080 µM.
